Patent publication US8901118B2, “Compounds and methods for kinase modulation, and indications therefor” (Plexxikon Inc., priority 2010, dated 2014)

Columns and labels:
BCR-NTRK1 BaF3 cells = target: T1, BCR-NTRK1 BaF3 cells (Homo sapiens, UniProt P04629); test: BaF3 BCR-NTRK1 cell proliferation assay (ATPlite); assay type: cell-based; conditions: read-out: Inhibition of Cell Proliferation IC50, BCR/BaF3 TrkA
T1 construct: fused on or other part: P11274 (Breakpoint cluster region protein)
Procedure, shortened: (§1)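 Growth inhibition over 3 days at 37 °C; IC50 from ATPlite luminescence, 8 concentrations (1:3 steps, max 10 μM). BaF3 fusion lines were tested without IL-3.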

BCR-KIT BaF3 cells = target: T2, BCR-KIT BaF3 cells (Homo sapiens, UniProt P10721); test: BaF3 BCR-KIT cell proliferation assay (ATPlite); assay type: cell-based; conditions: read-out: Inhibition of Cell Proliferation IC50, BCR/BaF3 Kit
T2 construct: fused on or other part: P11274 (Breakpoint cluster region protein)
T2 sequence (P10721 589-937): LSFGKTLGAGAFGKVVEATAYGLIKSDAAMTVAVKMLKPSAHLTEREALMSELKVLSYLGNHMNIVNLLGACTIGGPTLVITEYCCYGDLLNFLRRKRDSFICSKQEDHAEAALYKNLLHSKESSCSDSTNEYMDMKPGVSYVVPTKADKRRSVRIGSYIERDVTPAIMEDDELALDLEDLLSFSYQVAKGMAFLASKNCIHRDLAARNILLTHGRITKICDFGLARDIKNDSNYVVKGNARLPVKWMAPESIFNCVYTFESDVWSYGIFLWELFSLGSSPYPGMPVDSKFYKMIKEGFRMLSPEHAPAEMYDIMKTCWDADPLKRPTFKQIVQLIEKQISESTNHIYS
Procedure, shortened: as §1

T1 sequence (P04629 510-781): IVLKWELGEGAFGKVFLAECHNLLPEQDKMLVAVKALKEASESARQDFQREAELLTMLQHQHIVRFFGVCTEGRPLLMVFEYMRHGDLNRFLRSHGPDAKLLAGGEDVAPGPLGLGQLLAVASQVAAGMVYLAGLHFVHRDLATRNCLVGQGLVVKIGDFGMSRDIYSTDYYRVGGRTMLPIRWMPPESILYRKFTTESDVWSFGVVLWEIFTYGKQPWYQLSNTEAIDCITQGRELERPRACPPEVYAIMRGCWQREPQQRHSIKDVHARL

Row | SMILES | IC50 (BCR-NTRK1 BaF3 cells) | IC50 (BCR-KIT BaF3 cells)
1 | CCOc1ncnc2[nH]cc(Cc3ccc(Nc4ccc(C)nc4)nc3F)c12 [Compound P-4017, [5-(4-Ethoxy-7H-pyrrolo[2,3-d]pyrimidin-5-ylmethyl)-6-fluoro-pyridin-2-yl]-(6-methyl-pyridin-3-yl)-amine] | < 1000 nM | < 1000 nM
2 | CCOc1ncnc2[nH]cc(Cc3ccc(Nc4ccc(OC)nc4)nc3F)c12 [Compound P-4018, [5-(4-Ethoxy-7H-pyrrolo[2,3-d]pyrimidin-5-ylmethyl)-6-fluoro-pyridin-2-yl]-(6-methoxy-pyridin-3-yl)-amine] | < 100 nM | < 1000 nM
3 | COCCOc1ncnc2[nH]cc(Cc3ccc(Nc4ccc(OC)nc4)nc3F)c12 [Compound P-4019, {6-Fluoro-5-[4-(2-methoxy-ethoxy)-7H-pyrrolo[2,3-d]pyrimidin-5-ylmethyl]-pyridin-2-yl}-(6-methoxy-pyridin-3-yl)-amine] | < 1000 nM | < 1000 nM
4 | CCOc1ncnc2[nH]cc(Cc3ccc(Nc4ccc(Br)nc4)nc3F)c12 [Compound P-4020, (6-Bromo-pyridin-3-yl)-[5-(4-ethoxy-7H-pyrrolo[2,3-d]pyrimidin-5-ylmethyl)-6-fluoro-pyridin-2-yl]-amine] | < 1000 nM | < 1000 nM
5 | CCOc1ncnc2[nH]cc(Cc3ccc(Nc4cccnc4)nc3F)c12 [Compound P-4021, [5-(4-Ethoxy-7H-pyrrolo[2,3-d]pyrimidin-5-ylmethyl)-6-fluoro-pyridin-2-yl]-pyridin-3-yl-amine] | > 1000 nM | > 1000 nM
6 | COc1ccc(Nc2ccc(Cc3c[nH]c4ncnc(C5CC5)c34)c(F)n2)cn1 [Compound P-4023, [5-(4-cyclopropyl-7H-pyrrolo[2,3-d]pyrimidin-5-ylmethyl)-6-fluoro-pyridin-2-yl]-(6-methoxy-pyridin-3-yl)-amine] | < 100 nM | < 1000 nM
7 | CCc1ccc(Nc2ccc(Cc3c[nH]c4ncnc(C5CC5)c34)c(F)n2)cn1 [Compound P-4028, [5-(4-Cyclopropyl-7H-pyrrolo[2,3-d]pyrimidin-5-ylmethyl)-6-fluoro-pyridin-2-yl]-(6-ethyl-pyridin-3-yl)-amine] | < 10 nM | < 1000 nM
8 | Cc1ccc(Nc2ccc(Cc3c[nH]c4ncnc(C5CC5)c34)c(F)n2)cn1 [Compound P-4030, [5-(4-Cyclopropyl-7H-pyrrolo[2,3-d]pyrimidin-5-ylmethyl)-6-fluoro-pyridin-2-yl]-(6-methyl-pyridin-3-yl)-amine] | < 1000 nM | < 1000 nM
9 | CCn1cc(Nc2ccc(Cc3c[nH]c4ncnc(C5CC5)c34)c(F)n2)cn1 [Compound P-4036, [5-(4-Cyclopropyl-7H-pyrrolo[2,3-d]pyrimidin-5-ylmethyl)-6-fluoro-pyridin-2-yl]-(1-ethyl-1H-pyrazol-4-yl)-amine] | < 1000 nM | < 1000 nM
10 | CCn1cc(Nc2ccc(C(=O)c3c[nH]c4ncnc(C5CC5)c34)c(F)n2)cn1 [Compound P-4037, (4-Cyclopropyl-7H-pyrrolo[2,3-d]pyrimidin-5-yl)-[6-(1-ethyl-1H-pyrazol-4-ylamino)-2-fluoro-pyridin-3-yl]-methanone] | < 100 nM | < 100 nM
11 | Cc1cncc(Nc2ccc(Cc3c[nH]c4ncnc(C5CC5)c34)c(F)n2)c1 [Compound P-4038, [5-(4-Cyclopropyl-7H-pyrrolo[2,3-d]pyrimidin-5-ylmethyl)-6-fluoro-pyridin-2-yl]-(5-methyl-pyridin-3-yl)-amine] | < 1000 nM | < 1000 nM
12 | Cc1cncc(Nc2ccc(C(=O)c3c[nH]c4ncnc(C5CC5)c34)c(F)n2)c1 [Compound P-4039, (4-Cyclopropyl-7H-pyrrolo[2,3-d]pyrimidin-5-yl)-[2-fluoro-6-(5-methyl-pyridin-3-ylamino)-pyridin-3-yl]-methanone] | < 100 nM | < 1000 nM
13 | Fc1nc(NC2CCC(F)(F)CC2)ccc1Cc1c[nH]c2ncnc(NCC(F)(F)F)c12 [Compound P-4128, 5-[[6-[(4,4-difluorocyclohexyl)amino]-2-fluoro-3-pyridyl]methyl]-N-(2,2,2-trifluoroethyl)-7H-pyrrolo[2,3-d]pyrimidin-4-amine] | < 1000 nM | < 1000 nM
14 | Fc1nc(NC2CCC(F)(F)CC2)ccc1Cc1c[nH]c2ncnc(NC3CC3)c12 [Compound P-4129, N-cyclopropyl-5-[[6-[(4,4-difluorocyclohexyl)amino]-2-fluoro-3-pyridyl]methyl]-7H-pyrrolo[2,3-d]pyrimidin-4-amine] | < 1000 nM | < 1000 nM
15 | Fc1nc(Nc2ccc(C3CC3)nc2)ccc1Cc1c[nH]c2ncnc(NCC(F)(F)F)c12 [Compound P-4130, 5-[[6-[(6-cyclopropyl-3-pyridyl)amino]-2-fluoro-3-pyridyl]methyl]-N-(2,2,2-trifluoroethyl)-7H-pyrrolo[2,3-d]pyrimidin-4-amine] | < 100 nM | > 1000 nM

Continued, values first:

Row | IC50 (BCR-NTRK1 BaF3 cells) | IC50 (BCR-KIT BaF3 cells) | SMILES
16 | < 10 nM | < 1000 nM | COc1ccc(Nc2ccc(C(=O)c3c[nH]c4ncnc(C5CC5)c34)c(F)n2)cn1 [Compound P-4022, (4-cyclopropyl-7H-pyrrolo[2,3-d]pyrimidin-5-yl)-[2-fluoro-6-(6-methoxy-pyridin-3-ylamino)-pyridin-3-yl]-methanone]
17 | < 100 nM | < 1000 nM | CCOc1ccc(Nc2ccc(C(=O)c3c[nH]c4ncnc(OC)c34)c(F)n2)cn1 [Compound P-4024, [6-(6-Ethoxy-pyridin-3-ylamino)-2-fluoro-pyridin-3-yl]-(4-methoxy-7H-pyrrolo[2,3-d]pyrimidin-5-yl)-methanone]
18 | < 100 nM | > 1000 nM | CCOc1ncnc2[nH]cc(C(=O)c3ccc(Nc4ccc(OC)nc4)nc3F)c12 [Compound P-4025, (4-Ethoxy-7H-pyrrolo[2,3-d]pyrimidin-5-yl)-[2-fluoro-6-(6-methoxy-pyridin-3-ylamino)-pyridin-3-yl]-methanone]
19 | < 100 nM | < 1000 nM | CCOc1ccc(Nc2ccc(Cc3c[nH]c4ncnc(C5CC5)c34)c(F)n2)cn1 [Compound P-4026, [5-(4-Cyclopropyl-7H-pyrrolo[2,3-d]pyrimidin-5-ylmethyl)-6-fluoro-pyridin-2-yl]-(6-ethoxy-pyridin-3-yl)-amine]
20 | < 100 nM | < 1000 nM | CCOc1ccc(Nc2ccc(C(=O)c3c[nH]c4ncnc(C5CC5)c34)c(F)n2)cn1 [Compound P-4027, (4-Cyclopropyl-7H-pyrrolo[2,3-d]pyrimidin-5-yl)-[6-(6-ethoxy-pyridin-3-ylamino)-2-fluoro-pyridin-3-yl]-methanone]
21 | < 10 nM | < 100 nM | CCc1ccc(Nc2ccc(C(=O)c3c[nH]c4ncnc(C5CC5)c34)c(F)n2)cn1 [Compound P-4029, (4-Cyclopropyl-7H-pyrrolo[2,3-d]pyrimidin-5-yl)-[6-(6-ethyl-pyridin-3-ylamino)-2-fluoro-pyridin-3-yl]-methanone]
22 | < 100 nM | < 1000 nM | Cc1ccc(Nc2ccc(C(=O)c3c[nH]c4ncnc(C5CC5)c34)c(F)n2)cn1 [Compound P-4031, (4-Cyclopropyl-7H-pyrrolo[2,3-d]pyrimidin-5-yl)-[2-fluoro-6-(6-methyl-pyridin-3-ylamino)-pyridin-3-yl]-methanone]
23 | < 100 nM | < 1000 nM | CCOc1ccc(Nc2ccc(C(=O)c3c[nH]c4ncnc(C)c34)c(F)n2)cn1 [Compound P-4032, [6-(6-Ethoxy-pyridin-3-ylamino)-2-fluoro-pyridin-3-yl]-(4-methyl-7H-pyrrolo[2,3-d]pyrimidin-5-yl)-methanone]
